This is an account of results in US20240415878A1, “Compositions and Methods for Modulating Mitochondrial Function” (Board of Regents, The University of Texas System, priority 2021, published 2024).

In one data set the target is T1, human MRS2 (Homo sapiens, UniProt Q9HD23).
T1 construct: 6xHis (N, cleaved yes); made in house; host or cells: BL21 (DE3) codon+ Escherichia coli, pET-28a
T1 sequence (Q9HD23 58-443): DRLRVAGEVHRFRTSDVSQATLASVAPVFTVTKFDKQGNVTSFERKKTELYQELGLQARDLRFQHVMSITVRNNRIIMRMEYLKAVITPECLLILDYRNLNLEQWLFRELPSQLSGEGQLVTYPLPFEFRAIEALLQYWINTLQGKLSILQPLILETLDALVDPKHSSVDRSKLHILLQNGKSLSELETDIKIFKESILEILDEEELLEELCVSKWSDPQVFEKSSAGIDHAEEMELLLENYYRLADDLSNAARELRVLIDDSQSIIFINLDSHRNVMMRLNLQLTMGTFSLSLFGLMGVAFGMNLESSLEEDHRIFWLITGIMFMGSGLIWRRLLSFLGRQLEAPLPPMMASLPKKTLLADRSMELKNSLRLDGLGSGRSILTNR
The experiment in a line: Dynamic light scattering of purified full-length MRS2 assembly. The data set is classed as binding. Conditions: 5 mM. The protocol:
Next, CPACC was assessed to determine if it directly affects the assembly of purified human MRS2 using dynamic light scattering (DLS). DLS has been used to determine whether the complex stability of proteins/channels is altered by molecular chaperones or drugs (Kitamura et al., 2006). Because of the high sensitivity of DLS to changes in complex sizes, full-length Mrs2 assembly was evaluated in the presence Ca^2+ (5 mM), Mg^2+ (5 mM), Co^2+ (5 mM) or the Mrs2 blocker CPACC (0.5 mM) (FIG. 10K, FIG. 10L, FIG. 10M, FIG. 10N, FIG. 10O). […] A concentration-response assessment confirmed robust decreases in hydrodynamic radii at all CPACC concentrations tested and as low as 10 μM (FIG. 10O).
MRS2 cloning, expression, and purification. The full length human MRS2 (NCBI accession NP_065713.1), identified as MRS258-443 (i.e. residues 58-443) and excluding the mitochondrial targeting sequence, was cloned into pET-28a using Ndel and Xhol restriction sites. […]
Dynamic light scattering (DIS). […] The sample was equilibrated for 5 min at 20° C. before 10 autocorrelation function acquisitions of 5 s each were recorded and averaged. […] The dependence of hydrodynamic size on CPACC concentration was determined using ≈0.5 mg/mL protein supplemented with 0.01 mM, 0.05 mM, 0.1 mM, 0.5 mM or 0.75 mM CPACC, using a similar experimental setup as described above and cumulants analysis.

Data set [1] relates to HIF-1α. An excerpt:
HIF-1α is stabilized in Mrs2−/− mice. To examine the intrinsic role of Mrs2, Mrs2^−/− mice were challenged to LPS-induced inflammatory response. It was noticed that there was a barely detectable HIF-1α stabilization in control but a significant HIF-1α protein accumulation following LPS stimulation in Mrs2^−/− hepatocytes (Daw et al., 2020). […] It was envisioned that loss of Mrs2 in hepatocyte mitochondria might control metabolite fluxes that regulates HIF-1α stability under normoxic conditions. HIF-1α is the most commonly studied transcription factor that responds to oxygen tension and its stabilization controls numerous metabolic cascades, including glycolysis and oxidative phosphorylation (Kaelin and Ratcliffe, 2008; Lum et al., 2007; Semenza, 2013). A targeted metabolite screen was conducted to identify whether these metabolites potentially altered in Mrs2^−/− control HIF-1α stabilization. WT hepatocytes were treated with the PHD inhibitor FG-4952 for 6 hours in the presence or absence of metabolites (Buckley et al., 2012). […] Next it was explored whether citric acid mediated HIF-1α destabilization is a hydroxylation dependent mechanism by reconstitution of hydroxylation-dead mutant HIF-1α in COS-7 cells (Yan et al., 2007). […] Next tested the potency of citric acid and sodium citrate was tested. Hepatocytes isolated from WT or Mrs2^−/− mice were treated for 6 hours. HIF-1α stabilization was less affected by di- or tri-sodium citrate than by citric acid (FIG. 9G). […] The citric acid-mediated HIF-1α destabilization was intact in multiple chemical modalities (FIG. 9H) and the intracellular chelation of Mg^2+ ions suppressed FG-4952-induced HIF-1α stabilization (FIG. 9I). […] Furthermore, COS-7 cells were more sensitive to the HIF-1α stabilizing effect compared to hepatocytes. […] Next HIF-1α abundance was tested in liver tissues harvested from dietary cohorts. HIF-1α protein expression/stabilization was prominent in both Mrs2^−/− and Mrs2^−/− WD, whereas HIF-1α protein was nearly completely absent in WT WD (FIG. 9M). This supports the elevation of HIF-1α protein level as a key mechanism driving transcription changes in Mrs2^−/− WD livers.
Immunoblotting. Crushed tissues were homogenized in lysis buffer (ThermoFisher) on ice for one minute (20-30 strokes) using an automatic Dounce homogenizer set to 2000 RPM. Whole cell lysate was prepared in lysis buffer (Abcam) using 3 sets of 3-second sonication (power level 3) intervals on ice. Protein concentration was estimated using Pierce BCA assay kit and samples were prepared and heated for 90° C. for 5 minutes. Equal amounts of protein were loaded and separated on 4%-12% Bis-Tris polyacrylamide gel (Thermo Fisher Scientific), transferred to a PVDF membrane, blocked for 1-2 h using 5% fat free skim milk, washed and finally, probed with corresponding antibodies as specified below. Antibodies were from Cell Signaling Technology (HIF-1α and Hydroxy HIF-1α dilution 1:3000, MCU dilution 1.5000, MICU1 dilution 1:3000), Abcam Abcam (CPT-1a, CPT-2, OXPHOS cocktail dilution 1:3000), ZYMED Laboratories (β-actin; dilution 1:1,000), and Amersham (secondary antibodies conjugated with peroxidase). Development was done using X-ray film using a series of timed exposures and Image J was used for densitometric analysis on scanned film images.

The subject of data set [2] is HIF-1α. Kind of data set: HIF-1α stabilization in COS-7 cells. The data set is classed as cell-based. The source says: HIF-1α is stabilized in Mrs2−/− mice. To examine the intrinsic role of Mrs2, Mrs2^−/− mice were challenged to LPS-induced inflammatory response. It was noticed that there was a barely detectable HIF-1α stabilization in control but a significant HIF-1α protein accumulation following LPS stimulation in Mrs2^−/− hepatocytes (Daw et al., 2020). […] It was envisioned that loss of Mrs2 in hepatocyte mitochondria might control metabolite fluxes that regulates HIF-1α stability under normoxic conditions. HIF-1α is the most commonly studied transcription factor that responds to oxygen tension and its stabilization controls numerous metabolic cascades, including glycolysis and oxidative phosphorylation (Kaelin and Ratcliffe, 2008; Lum et al., 2007; Semenza, 2013). A targeted metabolite screen was conducted to identify whether these metabolites potentially altered in Mrs2^−/− control HIF-1α stabilization. WT hepatocytes were treated with the PHD inhibitor FG-4952 for 6 hours in the presence or absence of metabolites (Buckley et al., 2012). […] Next it was explored whether citric acid mediated HIF-1α destabilization is a hydroxylation dependent mechanism by reconstitution of hydroxylation-dead mutant HIF-1α in COS-7 cells (Yan et al., 2007). […] Next tested the potency of citric acid and sodium citrate was tested. Hepatocytes isolated from WT or Mrs2^−/− mice were treated for 6 hours. […]

Data set [3] deals with HIF-1α. Kind of data set: HIF-1α stabilization in human kidney cell line (HK-2). To be noted: HK-2 treated with CoCl2, metabolites 6 hours. The data set is classed as cell-based.

Take `[Cl-].[Cl-].[Co+2]` [Co^2+, reference compound]: the “full-length MRS2 complex sizes (DLS)” value at human MRS2 is reported as “potently decreased”.
On to `O=C(O)CC(O)(CC(=O)O)C(=O)O` [citric acid], for which the “response of hepatocytes from Mrs2^−/− mice to the destabilizing effect” value in the data set with HIF-1α [1] is “partially resistant”. In addition, the “HIF-1α destabilizing effect in homogenate” value in the data set with HIF-1α [1] (FG-4592 treated WT hepatocyte homogenate) is listed as “partly maintained”. Also, the “time course of HIF-1α destabilization” value with HIF-1α [1] (FG-4592 treated hepatocytes) is “very rapid and robust”. Further, in the data set on HIF-1α [1] (WT hepatocytes, FG-4952, 6 hours), the “effect on HIF-1α stabilized by PHD inhibitor” value is “destabilized HIF-1α”. In addition, in the data set with HIF-1α [1] (WT hepatocytes, PHD inhibitor, 6 hours), the “concentration at which HIF-1α destabilization was observed” value was at least 6 mM. Besides, the “constitutively stabilized (hydroxylation-dead) HIF-1α mutant” value in the data set on HIF-1α [2] was “unaffected”. The “FG-4592 dependent HIF-1α stabilization” value with HIF-1α [2] (10 mM) is “completely blunted”. Moreover, the HIF-1α destabilizing activity result with HIF-1α [3] is reported as “replicates the observations in hepatocytes”.
